Experimental data reported in publication PMC4536076, “Chemical Library Screening and Structure-Function Relationship Studies Identify Bisacodyl as a Potent and Selective Cytotoxic Agent Towards Quiescent Human Glioblastoma Tumor Stem-Like Cells” (PLoS ONE, 2015).
Counter-ions that a name gives are not always drawn. Like-named read-outs stand apart in the source and are kept apart here.

Key:
proliferating TG1 GSCs [1] = assay: ATP-Glo dose-response, proliferating TG1 GSCs; assay type: cell-based, human
Procedure: (§1) The EC50 value was determined for each compound by fitting the data points according to the following equation: y=Smax+Smin*(x*1/EC50)^n/1+(x*1/EC50)^n where y represents the expected response, x is the chemical compound concentration, S max and S min are the maximum and minimum responses recorded, respectively and n is the Hill coefficient. Curve fitting was performed using Microsoft Excel Solver component.
(§2) Proliferating or quiescent TG1 cells were seeded in 50 μL of their respective media (30 000 and 40 000 viable cells/well, respectively) into 96-well opaque bottom plates (Greiner, Courtaboeuf, France). Compound treatment was performed by adding 50 μL of compound solutions (in the presence of 2% DMSO in culture medium). […] All compounds were tested in triplicate in each experiment. Independent experiments were performed at least twice for almost all of the compounds.

quiescent TG1 GSCs [2] = assay: ATP-Glo dose-response, quiescent TG1 GSCs; assay type: cell-based, human; settings: for EC50: Homo sapiens, 24 h
Procedure: as §1, §2

proliferating TG16 GSCs = assay: ATP-Glo dose-response, proliferating TG16 GSCs; assay type: cell-based, human; settings: ATP Glo readout, 24 h treatment, read-out: P TG16 GSCs EC50
Procedure: as §1
(§3) Similar dose response curves were performed using GSCs isolated from GBM of two other patients (TG16 and OB1 GSCs) grown under proliferating and quiescent conditions.

quiescent TG16 GSCs = assay: ATP-Glo dose-response, quiescent TG16 GSCs; assay type: cell-based, human; settings: ATP Glo readout, 24 h treatment, read-out: Q TG16 GSCs EC50
Procedure: as §1, §3

proliferating OB1 GSCs = assay: ATP-Glo dose-response, proliferating OB1 GSCs; assay type: cell-based; settings: Homo sapiens; ATP Glo readout, 24 h treatment; read-out: P OB1 GSCs EC50
Procedure: as §1, §3

quiescent OB1 GSCs = assay: ATP-Glo dose-response, quiescent OB1 GSCs; assay type: cell-based, human; settings: ATP Glo readout, 24 h treatment, read-out: Q OB1 GSCs EC50
Procedure: as §1, §3

[3] = system: primary astrocytes (HA cells); assay: ATP-Glo dose-response, primary astrocytes; assay type: cell-based, human; settings: ATP Glo readout, 24 h treatment
[4] = system: fetal neural stem cells (f-NSC); assay: ATP-Glo dose-response, fetal neural stem cells; assay type: cell-based; settings: Homo sapiens, Neural stem cell; ATP Glo readout, 24 h treatment
HEK 293 cells = assay: ATP-Glo dose-response, HEK 293 cells; assay type: cell-based, human; settings: ATP Glo readout, 24 h treatment
Procedure: as §1, with “component. […]” for “component.”

proliferating TG1 GSCs [5] = settings: primary screen, 50 μM, 24 h
Outline: (§4)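 Cells seeded at 30 000 (proliferating) or 40 000 (quiescent) viable cells/well and treated with compound at 50 μM final, 1% DMSO, single test; hits retested in duplicate at 50 and 5 μM. ATP measured by luminescence, as percent of the mean signal of DMSO control wells.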

quiescent TG1 GSCs [6] = settings: primary screen, 50 μM, 24 h
Outline: as §4

[7] = Homo sapiens, 24 h, ATP Glo readout, 24 h treatment, n = 3, read-out: P TG1 GSCs EC50
[8] = ATP Glo readout, 24 h treatment, n = 3, read-out: Q TG1 GSCs EC50
[9] = Homo sapiens, 24 h, SAR study, ATP-Glo cell survival assay, 24 h, triplicate, read-out: Proliferating TG1 GSCs EC50
[10] = SAR study, ATP-Glo cell survival assay, triplicate, read-out: Quiescent TG1 GSCs EC50

Row | Molecule | EC50 (proliferating TG1 GSCs [1]; [7]) [µM] | EC50 (quiescent TG1 GSCs [2]; [8]) [µM] | EC50 (proliferating TG16 GSCs; Homo sapiens) [µM] | EC50 (quiescent TG16 GSCs; Homo sapiens) [µM] | EC50 (proliferating OB1 GSCs) [µM] | EC50 (quiescent OB1 GSCs; Homo sapiens) [µM] | EC50 ([3]; Homo sapiens, Astrocyte) [µM] | EC50 [4] [µM] | EC50 (HEK 293 cells; Homo sapiens, HEK293) [µM] | Activity on proliferating TG1 GSCs (hit compounds reducing ATP levels) (proliferating TG1 GSCs [5]) | Activity on quiescent TG1 GSCs (hit compounds reducing ATP levels) (quiescent TG1 GSCs [6]) | EC50 (proliferating TG1 GSCs [1]; ATP Glo readout, 24 h treatment, n = 3, read-out: P TG1 GSCs EC50) [µM] | EC50 (proliferating TG16 GSCs) [µM] | EC50 (quiescent TG16 GSCs) [µM] | EC50 (quiescent OB1 GSCs) [µM] | EC50 [3] [µM] | EC50 (HEK 293 cells) [µM] | EC50 (proliferating TG1 GSCs [1]; [9]) [µM] | EC50 (quiescent TG1 GSCs [2]; [10]) [µM] | fold increase in EC50 (activity decrease) compared to DDPM (compound 2) (quiescent TG1 GSCs [2]; quiescent TG1 GSCs)
1 | OCCN1CCN(CC/C=C2/c3ccccc3Sc3ccc(Cl)cc32)CC1 [Zuclopenthixol hydrochloride] | 20 ± 3 | 52 ± 3 | 29 ± 5 | 48 ± 18 | 27 ± 9 | > 100 | 12 ± 1 | 13 ± 1 | 29 ± 1 | yes |  |  |  |  |  |  |  |  |  | 
2 | CCCCCCCCNC(C)C(O)c1ccc(SC(C)C)cc1 (centres unmarked) [Suloctidil] | 11 ± 1 | 13 ± 1 | 13.5 ± 0.1 | 14 ± 6 | 15 ± 2 | 20 ± 4 | 11 ± 1 | 5 ± 1 | 10 ± 1 | yes | yes |  |  |  |  |  |  |  |  | 
3 | CC(=O)[C@H]1CC[C@H]2[C@@H]3CCC4=CC(=O)CC[C@]4(C)[C@H]3CC[C@]12C [Progesterone] | > 100 | 25 ± 11 | 75 ± 6 | 25 ± 9 | 89 ± 29 | 23 ± 11 | > 100 | > 100 | 36 ± 10 |  | yes |  |  |  |  |  |  |  |  | 
4 | CC(NCCC(c1ccccc1)c1ccccc1)c1ccccc1 (centres unmarked) [Fendiline hydrochloride] | 22 ± 1 | 32 ± 1 | 42 ± 1 | 45 ± 16 | 40 ± 13 | 48 ± 9 | 42 ± 8 | 11 ± 1 | 34 ± 9 |  | yes |  |  |  |  |  |  |  |  | 
5 | CC(Cc1ccccc1)NCCC(c1ccccc1)c1ccccc1 (centres unmarked) [Prenylamine lactate] | 22 ± 3 | 27 ± 3 | 32 ± 2 | 42 ± 8 | 30 ± 7 | 49 ± 4 | 30 ± 2 | 9 ± 2 | 25 ± 6 | yes | yes |  |  |  |  |  |  |  |  | 
6 | CC(C)(C)c1ccc(C(O)CCCN2CCC(C(O)(c3ccccc3)c3ccccc3)CC2)cc1 (centres unmarked) [Terfenadine] | ~10 | 17 ± 1 | 9 ± 1 | 24 ± 6 | 10 ± 2 | 22 ± 4 | 9 ± 2 | 4 ± 1 | 8 ± 1 | yes | yes | 8 ± 1 |  |  |  |  |  |  |  | 
7 | Beta-Escin |  |  |  |  |  |  |  |  |  | yes | yes |  | 6 ± 1 | 8 ± 1 | 6 ± 1 | 7 ± 1 | 31 ± 1 |  |  | 
8 | Oc1ccc(C(c2ccncc2)c2ccc(O)cc2)cc1 [Compound 16, 4,4'-dihydroxyphenyl-4-pyridinyl-methane] |  |  |  |  |  |  |  |  |  |  |  |  |  |  |  |  |  | > 100 | 39 ± 2 | ~ 40 fold
9 | COc1ccc(CCN2CCC(Nc3nc4ccccc4n3Cc3ccc(F)cc3)CC2)cc1 [Astemizole] |  |  |  |  |  |  |  | 6.3 ± 0.2 |  | yes |  |  |  |  |  |  |  |  |  | 
10 | CCOC(=O)C1=C(C)NC(C)=C(C(=O)OC)C1c1cccc(Cl)c1Cl (centres unmarked) [Felodipine] | 38 ± 1 | 30 ± 3 | 39 ± 4 | 33 ± 3 | 43 ± 5 | 41 ± 6 | 36 ± 6 | 59 ± 12 | 55 ± 2 | yes | yes |  |  |  |  |  |  |  |  | 
11 | CC(=O)Oc1ccc(C(c2ccc(O)cc2)c2ccccn2)cc1 (centres unmarked) [Compound 3, 4-((4-hydroxyphenyl)(pyridin-2-yl)methyl)phenyl acetate] |  |  |  |  |  |  |  |  |  |  |  |  |  |  |  |  |  | > 100 | 1 ± 0.5 | 
